The values that follow come from US8703964B2, “Bendamustine cyclopolysaccharide compositions” (Supratek Pharma Inc., priority 2009, dated 2014).

Each structure is given as a SMILES string.

For series [1], the system named is Human breast carcinoma MDA-MB 231 s.c. solid tumors. Nature of the series: Human breast carcinoma MDA-MB 231 s.c. solid tumors in nude mice (Example 28). Format: in vivo, balb/c nu/nu mice. The settings on record: for Tumor weight after treatment, Average (SEM): 30 mg/kg days 1, 2, 9, 10. On the procedure: balb/c mice aged 5 to 6 weeks were purchased from Charles River Canada Inc. The animals were kept 5 per cage with an air filter cover under light (12 light/dark cycle, light on at 6 H00) and temperature (22° C.±1° C.)-controlled environment. All manipulations of animals were performed under a sterilized laminar hood. The animals had ad libitum access to Purina mouse chow (Pro Lab PMH 4018, Trademark of Agway, Syracuse, N.Y.) and water. These animal studies were conducted according to the “Guidelines for Care and Use of Experimental Animals”. Tumor Cell Culture: Human breast cancer cells MDA-MB 231 were cultured in the appropriated culture medium. The cells were harvested in their logarithmic growth phase for the preparation of tumor implantation. Tumor Implantation: Human tumor or myeloma cells (2.5 to 5.0×10^6 cells) were implanted subcutaneously in 0.200 mL of medium containing 30% Matrigel on the two flanks of balb/c nu/nu mice through a 1 to 2 cm long 20-gauge needle. Treatments: 2 to 3 weeks after tumor cell implantation, animals that developed s.c. solid tumors were selected and divided into several homogeneous groups (n=5 animals per group or dose) with respect to tumor size (0.5 to 0.8 cm in diameter). The treatments were performed next day. The animals were dosed with the following dosing solutions. Control: (0.9%, NaCl) Compositions:
Subcutaneous solid tumor measurements were performed on the day of first injection and at 3- to 4-day intervals thereafter. The two largest perpendicular diameters of each tumor were measured with calipers and tumor sizes were estimated using the formula: TV=L×W/2 where TV: tumor volume; L: length; W: width. The body weights of animals were also noted.
The experiment was performed as described in example 27, using the following compositions for treatment:
non-formulated bendamustine, (30 mg/kg)
Bendamustine (30 mg/kg) in 40% SBECD (formulated BM)
The treatment was performed on days 1, 2, 9, and 10.

The test system of series [2] is RPMI8226 cells. Nature of the series: Cytotoxicity of bendamustine composition comprising SBECD and LMWP, WST-1 (Example 24). Format: cell-based. The settings on record: Homo sapiens, RPMI-8226, 72 h, read-out: drug cytotoxicity (WST-1), Table 8. On the procedure: (§1) RPMI8226, H69, MDA-MB-231, and H460 cells were maintained in appropriate medium, containing 10% FBS and antibiotics. 24 h after plating, bendamustine, and bendamustine formulated in SBECD/LMWP (40 mg/ml BM in 20% SBECD, 1% LMWP) were added in different concentrations to cell cultures and cells were grown for three days. The drug cytotoxicity was evaluated using WST-1 procedure.

The test system of series [3] is H69 cells. The series is described as above. It counts as cell-based. Particulars: Homo sapiens, NCI-H69, 72 h, read-out: drug cytotoxicity (WST-1), Table 8. On the procedure:
as §1

Series [4] has as its system MDA-MB-231 cells. The description is as above. It counts as cell-based. Particulars: Homo sapiens, MDA-MB-231, 72 h, read-out: drug cytotoxicity (WST-1), Table 8. As to the method:
as §1

Series [5] has as its system H460 cells. The description is as above. Particulars: Homo sapiens, NCI-H460, 72 h, read-out: drug cytotoxicity (WST-1), Table 8. Format: cell-based. As to the method: as §1
For orientation: Tetrazolium dyes change colour on reduction, which living cells bring about.

Series [6] in a line: Pharmacokinetics of bendamustine dosed to rats, composition with SBECD and PI2080 (Example 12). It counts as in vivo, Female Sprague-Dawley rats. Particulars: i.v. 10 mg/kg. On the procedure: Control: 2.5 mg/mL bendamustine hydrochloride, 4.25 mg/mL of mannitol in 0.9% NaCl; dose of 10 mg/kg
Inventive Composition: 2.5 mg/mL bendamustine hydrochloride, 40% w/w sodium sulfobutyl ether β-cyclodextrin, 1% PI2080, 4.3 mg/g mannitol in water (prepared according to the procedure set forth in Example 9); dose of 10 mg/kg.
Female Sprague-Dawley rats (250-350 g). The animals were kept three per cage with an air filter cover under light (12 h light/dark cycle, light on at 06 h00) and controlled temperature 22° C.+/−1° C. All manipulations with the animals were performed under a sterilized laminar hood. The animals had ad libitum access to Purina mouse chow and water. The animals were fasted overnight and anesthetized, before dosing. Dosing and Sampling: Inventive bendamustine composition and control were administered intravenously to rats in tail vein. Blood samples were collected after time intervals of 5, 15, 30, 45 min, 1, 1.5, 2 and 3 hrs post-injection, The rats were anesthetised by general inhalation of isoflurane. The blood samples were collected from the jugular vein with heparinized tube and kept on ice. The blood was immediately centrifuged, and plasma was separated. The plasma samples were immediately extracted. Sample Extraction and Analysis: The plasma samples 0.100 mL were transferred to plastic tubes. The samples were extracted with 0.400 mL of 100 mM HCl in acetonitrile while being shaken vigorously for 30 seconds. The samples were centrifuged at 10000 RPM for 5 minutes. The supernatant was separated. The samples were frozen in dry ice and kept at −80° C. until HPLC analysis. The aliquots of 20 microliters were injected into HPLC for analysis. The HPLC Conditions: C18 reversed phase column 50×4.6 mm, Symmetry/Shield 3.5 micrometer Column temperature 30° C. Flow rate 1.5 mL/min Injection volume 20 microliters Fluorescence detection at wavelengths: excitation 327 nm, emission 420 nm Mobile phase: Buffer A: 5% acetonitrile 0.1% TFA Buffer B: 90% acetonitrile 0.1% TFA Run time: 10 min The improved pharmacokinetic profiles of Bendamustine for tested inventive composition versus the control is shown in Table 2 below.

Regarding `Cn1c(CCCC(=O)O)nc2cc(N(CCCl)CCCl)ccc21` [BM, 4-[5-[bis(2-chloroethyl)amino]-1-methylbenzimidazol-2-yl]butanoic acid], the “Tumor weight after treatment, Average (SEM)” value in series [1] (day 0) is 0.203 (0.028) g; in series [1] (day 2), 0.238 (0.023) g; in series [1] (day 5) it was 0.267 (0.022) g; in series [1] (day 7), 0.313 (0.028) g; in series [1] (day 9), 0.388 (0.045) g; in series [1] (day 12), 0.497 (0.060) g. In addition, the “Tumor weight after treatment, Average (SEM)” value in series [1] (day 14) is on record as 0.550 (0.075) g; in series [1] (day 16), 0.594 (0.084) g; in series [1] (day 19), 0.684 (0.098) g. The “Real Tumor weight on day 19 in autopsy” value in series [1] (30 mg/kg, Day 1, 2, 9, 10) worked out at 0.275 ± 0.052 g. The “Tumor weight on day 19 estimated from measurements of the tumor size” value in series [1] (30 mg/kg, Day 1, 2, 9, 10) is recorded as 0.684 ± 0.10 g. Moreover, the IC50 in series [2] is 117 µM; in series [3] it was 254 µM; in series [4], 600 µM; in series [5], 601 µM. In series [6] (female, Sprague-Dawley, rat, plasma, iv, 0.08 h post injection, read-out: Concentration of bendamustine in rat plasma, Mean (SEM)), the concentration at 0.08 h amounted to 6040 ng/mL. For the same molecule, the concentration at 0.25 h in series [6] (female, Sprague-Dawley, rat, plasma, iv, 0.25 h post injection, read-out: Concentration of bendamustine in rat plasma, Mean (SEM)) turned out to be 2430 ng/mL. The concentration at 0.5 h in series [6] (female, Sprague-Dawley, rat, plasma, iv, 0.5 h post injection, read-out: Concentration of bendamustine in rat plasma, Mean (SEM)) was found to be 520 ng/mL. In addition, in series [6] (female, Sprague-Dawley, rat, plasma, iv, 0.75 h post injection, read-out: Concentration of bendamustine in rat plasma, Mean (SEM)), the concentration at 0.75 h was determined as 145 ng/mL. Besides, the concentration at 1.5 h in series [6] (female, Sprague-Dawley, rat, plasma, iv, 1.5 h post injection, read-out: Concentration of bendamustine in rat plasma, Mean (SEM)) is 8 ng/mL. Further, in series [6] (female, Sprague-Dawley, rat, plasma, iv, 2 h post injection, read-out: Concentration of bendamustine in rat plasma, Mean (SEM)), the concentration at 2 h came to 2 ng/mL. For the same molecule, the “Concentration of bendamustine in rat plasma, Mean (SEM)” value is on record as 48 (11) ng/mL in series [6] (1 h post injection) and 0 (1) ng/mL in series [6] (3 h post injection).
